In brackets after ≈: the same amount, converted by molar mass.
Tests used:
[1] = biological target: Escherichia coli LpxH (UDP-2,3-diacylglucosamine hydrolase) (Escherichia coli (strain K12), UniProt P43341); assay: 50% Inhibitory Concentration (IC50) to LpxH, UMP/CMP-Glo Glycosyltransferase Assay kit; assay type: biochemical
Method in brief: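 LpxH hydrolysis of UDP-2,3-diacylglucosamine to lipid X and UMP; UMP produced is converted to ATP and quantified by luciferase luminescence (UMP/CMP-Glo). Inhibition taken from reduced light output.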

E. coli (ATCC 25922) = assay: Minimal Inhibitory Concentration (MIC) assay, E. coli; assay type: cell-based; conditions: Escherichia coli, ATCC25922; E. coli ATCC 25922, CAMHB, 20 hours at 35° C.; read-out: MIC E. coli ATCC 25922
Method in brief: (§1)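 Broth microdilution in cation-adjusted Mueller Hinton broth, inoculum 5×10^5 CFU/mL, compounds 2-fold serially diluted from 10 mM DMSO stocks. Plates incubated 20 hours at 35° C in ambient air; MIC (μg/mL) is the lowest concentration preventing visible growth.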

[2] = tested on: K. pneumonia (ATCC 43816); assay: Minimal Inhibitory Concentration (MIC) assay, K. pneumonia; assay type: cell-based; conditions: Klebsiella pneumoniae; K. pneumoniae ATCC43816, CAMHB, 20 hours at 35° C.; read-out: MIC K. pneumoniae ATCC43816
Method in brief: as §1

Chain of Escherichia coli LpxH (UDP-2,3-diacylglucosamine hydrolase) (P43341 whole entry): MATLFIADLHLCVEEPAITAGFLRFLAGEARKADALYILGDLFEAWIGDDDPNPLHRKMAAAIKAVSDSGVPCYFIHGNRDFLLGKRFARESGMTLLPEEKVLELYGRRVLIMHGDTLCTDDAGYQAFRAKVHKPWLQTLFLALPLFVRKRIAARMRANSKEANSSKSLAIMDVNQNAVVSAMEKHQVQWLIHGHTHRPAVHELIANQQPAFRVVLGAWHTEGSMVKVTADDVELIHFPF

Q: O=C1CC2NCCC2N1c1ccc(S(=O)(=O)N2CCN(c3cc(C(F)(F)F)cc(Cl)n3)CC2)cc1 (stereo not drawn) [Example 20, 4-[4-[4-[6-Chloro-4-(trifluoromethyl)-2-pyridyl]piperazin-1-yl]sulfonylphenyl]-1,2,3,3a,6,6a-hexahydropyrrolo[3,2-b]pyrrol-5-one] was tested. Which IC50 [1] did it give?
A: The IC50 was 62.3 nM.

Q: What about the MIC (E. coli (ATCC 25922)) of the same compound?
A: The MIC was 1.77 µg/mL (≈ 3.34 µM).

Q: What about the MIC [2] of the same compound?
A: Its MIC is 3.54 µg/mL (≈ 6.68 µM).

Q: What does the source list for N[C@@H]1CC(=O)N(c2ccc(S(=O)(=O)N3CCN(c4cc(C(F)(F)[C@@H]5COCCO5)cc(Cl)n4)CC3)cc2)C1 [Example 102, (4R)-4-amino-1-[4-[4-[6-chloro-4-[[(2S)-1,4-dioxan-2-yl]-difluoro-methyl]-2-pyridyl]piperazin-1-yl]sulfonylphenyl]pyrrolidin-2-one]?
A: IC50 [1]: 10.5 nM; MIC (E. coli (ATCC 25922)): 0.89 µg/mL (≈ 1.56 µM); MIC [2]: 0.89 µg/mL (≈ 1.56 µM)

Q: Which IC50 [1] does the source give for CNC1CC(=O)N(c2ccc(S(=O)(=O)N3CCN(c4cc(C(F)(F)F)cc(Cl)n4)CC3)cc2)C1 (stereo not drawn) [Example 44, 1-[4-[4-[6-chloro-4-(trifluoromethyl)-2-pyridyl]piperazin-1-yl]sulfonylphenyl]-4-(methylamino)pyrrolidin-2-one] here?
A: The IC50 was 197 nM.

Q: And the MIC (E. coli (ATCC 25922))?
A: The MIC was 1.73 µg/mL (≈ 3.34 µM).

Q: And the MIC [2]?
A: The MIC was 3.47 µg/mL (≈ 6.7 µM).

Q: With NC1CC(=O)N(c2ccc(S(=O)(=O)N3CCN(c4cc(C(F)(F)C5=CCOCC5)cc(Cl)n4)CC3)cc2)C1 (stereo not drawn) [Example 98, 4-Amino-1-[4-[4-[6-chloro-4-[3,6-dihydro-2H-pyran-4-yl(difluoro)methyl]-2-pyridyl]piperazin-1-yl]sulfonylphenyl]pyrrolidin-2-one] as the compound, how does the IC50 [1] read?
A: The IC50 was 47.5 nM.

Q: And the MIC (E. coli (ATCC 25922))?
A: Its MIC is 0.89 µg/mL (≈ 1.57 µM).

Q: And the MIC [2]?
A: The MIC was 0.89 µg/mL (≈ 1.57 µM).

Q: How did the IC50 [1] turn out when N[C@@H]1CC(=O)N(c2ccc(S(=O)(=O)N3CCN(c4cc(C(F)(F)C5=CCNCC5)cc(Cl)n4)CC3)cc2)C1 [Example 106] was run?
A: Its IC50 is 199 nM.

Q: And the MIC (E. coli (ATCC 25922))?
A: Its MIC is 1.77 µg/mL (≈ 3.12 µM).

Q: And the MIC [2]?
A: Its MIC is 1.77 µg/mL (≈ 3.12 µM).

Q: How did the IC50 [1] turn out when NC1CC(=O)N(c2ccc(S(=O)(=O)N3CCN(c4cc(C(F)(F)C5COC5)cc(Cl)n4)CC3)cc2)C1 (stereo not drawn) [Example 97, 4-Amino-1-[4-[4-[6-chloro-4-[difluoro(oxetan-3-yl)methyl]-2-pyridyl]piperazin-1-yl]sulfonylphenyl]pyrrolidin-2-one] was run?
A: The IC50 was 88.6 nM.

Q: And the MIC (E. coli (ATCC 25922))?
A: The MIC was 0.85 µg/mL (≈ 1.57 µM).

Q: And the MIC [2]?
A: Its MIC is 1.27 µg/mL (≈ 2.34 µM).

Q: For NC1CC(=O)N(c2ccc(S(=O)(=O)N3CCN(c4cc(C(F)(F)C5CC6CCC(C5)O6)cc(Cl)n4)CC3)cc2)C1 (stereo not drawn) [Example 100, 4-Amino-1-[4-[4-[6-chloro-4-[difluoro(8-oxabicyclo[3.2.1]octan-3-yl)methyl]-2-pyridyl]piperazin-1-yl]sulfonylphenyl]pyrrolidin-2-one], which IC50 [1] is on record?
A: Its IC50 is < 3.36 nM.

Q: And the MIC (E. coli (ATCC 25922))?
A: Its MIC is 1.86 µg/mL (≈ 3.12 µM).

Q: And the MIC [2]?
A: The MIC was 0.93 µg/mL (≈ 1.56 µM).

Q: How did the IC50 [1] turn out when NC1CC(=O)N(c2ccc(S(=O)(=O)N3CCN(c4cc(C(F)(F)c5cncnc5)cc(Cl)n4)CC3)cc2)C1 (stereo not drawn) [Example 92, 4-Amino-1-[4-[4-[6-chloro-4-[difluoro(pyrimidin-5-yl)methyl]-2-pyridyl]piperazin-1-yl]sulfonylphenyl]pyrrolidin-2-one] was run?
A: The IC50 was 95.7 nM.

Q: And the MIC (E. coli (ATCC 25922))?
A: Its MIC is 2.12 µg/mL (≈ 3.76 µM).

Q: What about the MIC [2] of the same compound?
A: The MIC was 4.24 µg/mL (≈ 7.52 µM).

Q: What does the source list for NCC1CN(c2ccc(S(=O)(=O)N3CCN(c4cc(C(F)(F)F)cc(Cl)n4)CC3)c(F)c2)C(=O)O1 (stereo not drawn) [Example 64, 5-(Aminomethyl)-3-[4-[4-[6-chloro-4-(trifluoromethyl)-2-pyridyl]piperazin-1-yl]sulfonyl-3-fluoro-phenyl]oxazolidin-2-one]?
A: IC50 [1]: 264 nM; MIC (E. coli (ATCC 25922)): 3.65 µg/mL (≈ 6.79 µM); MIC [2]: 14.6 µg/mL (≈ 27.1 µM)

Q: What does the source list for O=C1OC2(CCNCC2)CN1c1ccc(S(=O)(=O)N2CCN(c3cc(C(F)(F)F)cc(Cl)n3)CC2)cc1 [Example 14, 3-[4-[4-[6-Chloro-4-(trifluoromethyl)-2-pyridyl]piperazin-1-yl]sulfonylphenyl]-1-oxa-3,8-diazaspiro[4.5]decan-2-one]?
A: IC50 [1]: 96.4 nM; MIC (E. coli (ATCC 25922)): 1.75 µg/mL (≈ 3.13 µM); MIC [2]: 3.5 µg/mL (≈ 6.25 µM)

Q: With CC1(C)C(=O)N(c2ccc(S(=O)(=O)N3CCN(c4cc(C(F)(F)F)cc(Cl)n4)CC3)cc2)CC1N (stereo not drawn) [Example 5, 4-Amino-1-[4-[4-[6-chloro-4-(trifluoromethyl)-2-pyridyl]piperazin-1-yl]sulfonylphenyl]-3,3-dimethyl-pyrrolidin-2-one] as the compound, how does the IC50 [1] read?
A: Its IC50 is 154 nM.

Q: And the MIC (E. coli (ATCC 25922))?
A: Its MIC is 8.08 µg/mL (≈ 15.2 µM).

Q: And the MIC [2]?
A: The MIC was 16.1 µg/mL (≈ 30.4 µM).

Q: What does the source list for O=C1CC(CNCC2CNC2)CN1c1ccc(S(=O)(=O)N2CCN(c3cc(C(F)(F)F)cc(Cl)n3)CC2)cc1 (stereo not drawn) [Example 38, 4-[(Azetidin-3-ylmethylamino)methyl]-1-[4-[4-[6-chloro-4-(trifluoromethyl)-2-pyridyl]piperazin-1-yl]sulfonylphenyl]pyrrolidin-2-one]?
A: IC50 [1]: 47.7 nM; MIC (E. coli (ATCC 25922)): 5.09 µg/mL (≈ 8.67 µM); MIC [2]: 5.09 µg/mL (≈ 8.67 µM)

Q: CC(=O)NCC1CN(c2ccc(S(=O)(=O)N3CCN(c4cc(C(F)(F)F)cc(Cl)n4)CC3)cc2)C(=O)O1 (stereo not drawn) [Example 4, N-[[3-[4-[4-[6-chloro-4-(trifluoromethyl)-2-pyridyl]piperazin-1-yl]sulfonylphenyl]-2-oxo-oxazolidin-5-yl]methyl]acetamide] was tested. Which IC50 [1] did it give?
A: Its IC50 is 28.5 nM.

Q: What about the MIC (E. coli (ATCC 25922)) of the same compound?
A: Its MIC is 3.51 µg/mL (≈ 6.25 µM).

Q: What about the MIC [2] of the same compound?
A: The MIC was 7.03 µg/mL (≈ 12.5 µM).

Q: Which results are given for NCC1CN(c2ccc(S(=O)(=O)N3CCN(c4cc(C(F)(F)c5ccccc5)cc(Cl)n4)CC3)cc2)C(=O)O1 (stereo not drawn) [Example 88, 5-(Aminomethyl)-3-[4-[4-[6-chloro-4-[difluoro(phenyl)methyl]-2-pyridyl]piperazin-1-yl]sulfonylphenyl]oxazolidin-2-one]?
A: IC50 [1]: 13.8 nM; MIC (E. coli (ATCC 25922)): 0.26 µg/mL (≈ 0.45 µM); MIC [2]: 0.53 µg/mL (≈ 0.917 µM)

Q: NC1CC(=O)N(c2ccc(S(=O)(=O)N3CCN(c4cc(C(F)(F)c5ccccc5)nc(C5CC5)n4)CC3)cc2)C1 (stereo not drawn) [Example 79, 4-Amino-1-[4-[4-[2-cyclopropyl-6-[difluoro(phenyl)methyl]pyrimidin-4-yl]piperazin-1-yl]sulfonylphenyl]pyrrolidin-2-one] was tested. Which IC50 [1] did it give?
A: Its IC50 is 179 nM.

Q: And the MIC (E. coli (ATCC 25922))?
A: The MIC was 14.2 µg/mL (≈ 25 µM).

Q: And the MIC [2]?
A: The MIC was > 28.4 µg/mL.

Q: NC1CC(=O)N(c2ccc(S(=O)(=O)N3CCN(c4cc(C(F)(F)c5ccccn5)cc(Cl)n4)CC3)cc2)C1 (stereo not drawn) [Example 89, 4-Amino-1-[4-[4-[6-chloro-4-[difluoro(2-pyridyl)methyl]-2-pyridyl]piperazin-1-yl]sulfonylphenyl] pyrrolidin-2-one] was tested. Which IC50 [1] did it give?
A: Its IC50 is 60.4 nM.

Q: What about the MIC (E. coli (ATCC 25922)) of the same compound?
A: The MIC was 0.88 µg/mL (≈ 1.56 µM).

Q: What about the MIC [2] of the same compound?
A: The MIC was 0.88 µg/mL (≈ 1.56 µM).

Q: N[C@@H]1CN(C2CC(=O)N(c3ccc(S(=O)(=O)N4CCN(c5cc(C(F)(F)F)cc(Cl)n5)CC4)cc3)C2)C[C@H]1O (stereo partly drawn) [Example 56, 4-[(3R,4R)-3-amino-4-hydroxy-pyrrolidin-1-yl]-1-[4-[4-[6-chloro-4-(trifluoromethyl)-2-pyridyl]piperazin-1-yl]sulfonylphenyl]pyrrolidin-2-one] was tested. Which IC50 [1] did it give?
A: Its IC50 is 13.6 nM.

Q: What about the MIC (E. coli (ATCC 25922)) of the same compound?
A: The MIC was 1.96 µg/mL (≈ 3.33 µM).

Q: And the MIC [2]?
A: The MIC was 3.91 µg/mL (≈ 6.64 µM).

Q: O=C1CC(N2CC3(CNC3)C2)CN1c1ccc(S(=O)(=O)N2CCN(c3cc(C(F)(F)F)cc(Cl)n3)CC2)cc1 (stereo not drawn) [Example 52, 1-[4-[4-[6-Chloro-4-(trifluoromethyl)-2-pyridyl]piperazin-1-yl]sulfonylphenyl]-4-(2,6-diazaspiro[3.3]heptan-2-yl)pyrrolidin-2-one] was tested. Which IC50 [1] did it give?
A: The IC50 was 34.2 nM.

Q: And the MIC (E. coli (ATCC 25922))?
A: Its MIC is 17.5 µg/mL (≈ 29.9 µM).

Q: And the MIC [2]?
A: Its MIC is 17.5 µg/mL (≈ 29.9 µM).

Q: What does the source list for N[C@@H]1CC(=O)N(c2ccc(S(=O)(=O)N3CCN(c4cc(C(F)(F)[C@H]5CNCCO5)cc(Cl)n4)CC3)cc2)C1 [Example 105, (4R)-4-amino-1-[4-[4-[6-chloro-4-[difluoro-[(2R)-morpholin-2-yl]methyl]-2-pyridyl]piperazin-1-yl]sulfonylphenyl]pyrrolidin-2-one]?
A: IC50 [1]: 5.25 nM; MIC (E. coli (ATCC 25922)): 1.79 µg/mL (≈ 3.13 µM); MIC [2]: 1.79 µg/mL (≈ 3.13 µM)

Reference: patent US20250011300A1, “PIPERAZINYLSULFONYLARYL COMPOUNDS FOR TREATMENT OF BACTERIAL INFECTIONS” (Hoffmann-La Roche Inc., priority 2021, published 2025)
